Data taken from US7989464B2, “mGluR1 antagonists as therapeutic agents” (Schering Corporation, priority 2004, dated 2011).
Like-named read-outs stand apart in the source and are kept apart here.

Biological target: T1, hmGluR1 receptor (Homo sapiens, UniProt Q13255)
T1 construct: expressed in transfected cells
Assay: IC50 determination: intracellular calcium mobilization (FLIPR) upon Quisqualate stimulation in CHO cells stably expressing hmGluR1
Format: cell-based
Details: against Quisqualate 1 μM (EC80)
Procedure: A CHO cell line stably expressing hmGluR1 receptor was established. One day prior to assay, cells were split in growth media at concentration of 50,000 cells/well in a volume of 100 μl and seeded into black clear-bottom 96-well plates. After two to six hours, when cells were well attached to the plate, growth medium was replaced with assay medium (100 μL) consisting of DMEM high glucose, supplemented with GPT (1 U/mL) and Sodium pyruvate, 1 mM. Following overnight incubation, medium was discarded and cells were loaded for 2 h with dye from the Calcium 3 Assay Reagent Kit (Molecular Devices, # R8033), prepared according to manufacturers' instructions. […] Test compounds were added 10 minutes before Quisqualate.

[1] = FLIPR calcium mobilization, read-out: IC50 Class
[2] = class symbols, read-out: mGIuR 1 IC50
[3] = FLIPR calcium mobilization, read-out: mGluR1 IC50

T1 sequence (Q13255 19-1194): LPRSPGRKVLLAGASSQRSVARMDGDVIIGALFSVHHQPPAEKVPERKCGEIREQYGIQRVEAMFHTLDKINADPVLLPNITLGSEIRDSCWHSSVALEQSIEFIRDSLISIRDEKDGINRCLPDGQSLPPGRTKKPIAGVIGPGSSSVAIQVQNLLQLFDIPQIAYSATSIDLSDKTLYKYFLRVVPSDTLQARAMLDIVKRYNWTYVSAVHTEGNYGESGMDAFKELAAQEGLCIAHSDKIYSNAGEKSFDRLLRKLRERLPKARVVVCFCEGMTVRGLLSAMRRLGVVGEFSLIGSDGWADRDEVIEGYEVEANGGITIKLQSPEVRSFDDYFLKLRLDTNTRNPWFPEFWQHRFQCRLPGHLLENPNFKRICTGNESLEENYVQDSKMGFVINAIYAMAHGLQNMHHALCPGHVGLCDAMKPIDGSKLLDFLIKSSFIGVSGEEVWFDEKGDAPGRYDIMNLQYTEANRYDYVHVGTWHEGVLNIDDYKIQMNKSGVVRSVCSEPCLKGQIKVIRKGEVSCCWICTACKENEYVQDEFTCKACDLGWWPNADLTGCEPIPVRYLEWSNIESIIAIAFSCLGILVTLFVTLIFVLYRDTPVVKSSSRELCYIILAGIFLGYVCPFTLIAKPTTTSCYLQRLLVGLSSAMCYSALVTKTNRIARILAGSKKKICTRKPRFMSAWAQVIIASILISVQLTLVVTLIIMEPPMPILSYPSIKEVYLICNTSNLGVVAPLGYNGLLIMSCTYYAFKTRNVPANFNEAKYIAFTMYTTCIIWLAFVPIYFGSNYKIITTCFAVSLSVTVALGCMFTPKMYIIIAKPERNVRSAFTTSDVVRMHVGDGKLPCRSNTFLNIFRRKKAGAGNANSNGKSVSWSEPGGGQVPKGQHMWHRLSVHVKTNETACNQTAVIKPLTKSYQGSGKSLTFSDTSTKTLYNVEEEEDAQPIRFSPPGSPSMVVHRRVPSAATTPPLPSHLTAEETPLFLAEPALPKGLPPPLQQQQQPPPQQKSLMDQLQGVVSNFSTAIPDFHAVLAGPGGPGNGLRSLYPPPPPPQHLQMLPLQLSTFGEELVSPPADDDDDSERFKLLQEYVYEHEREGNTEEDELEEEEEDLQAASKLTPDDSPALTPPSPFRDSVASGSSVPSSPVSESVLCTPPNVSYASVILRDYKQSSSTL

SMILES | IC50 [1] | IC50 [2] | other results
CN(CC(O)CO)c1ccnc2sc3c(=O)n(-c4ccc(F)cc4)cnc3c12 (stereo not shown) [28HR] | 150 to 1000 nM |  | 
O=c1c2sc3nccc(NCCO)c3c2ncn1-c1ccc(F)cc1 [28GC] | 50 to 150 nM |  | 
CN(C)c1ccnc2sc3c(=O)n(Nc4ccccc4)cnc3c12 [60B] |  | < 50 nM | 
COc1ccc(-n2cnc3c(sc4nccc(N5CC(O)C5)c43)c2=O)cc1 [28DJ] | 50 to 150 nM |  | 
CN(CC(O)CO)c1ccnc2sc3c(=O)n(-c4ccc(Br)cc4)cnc3c12 (stereo not shown) [28HU] | < 50 nM |  | 
Cc1nn(C)c(C)c1-n1cnc2c(sc3nccc(N(C)C)c32)c1=O [15AC] |  | > 1000 nM | 
CC1CCCC(C)N1n1cnc2c(sc3nccc(N(C)C)c32)c1=O (stereo not shown) [60F] |  | 50 to 150 nM | 
Cc1ccc(-n2cnc3c(sc4nccc(N(C)C)c43)c2=O)cn1 [7DF] |  | < 50 nM | 
CNc1ccnc2sc3c(=O)n(-c4ccc(F)cc4)cnc3c12 [28IB] | < 50 nM |  | 
O=c1c2sc3nccc(NC4CC4)c3c2ncn1-c1cccc(Cl)c1 [28CB] | 50 to 150 nM |  | 
O=c1c2sc3nccc(N4CCCCC4)c3c2ncn1-c1ccc(Cl)cc1 [28GH] | > 1000 nM |  | 
CNc1ccnc2sc3c(=O)n(-c4ccc5c(c4)CCO5)cnc3c12 [28BR] | < 50 nM |  | 
CNc1ccnc2sc3c(=O)n(-c4ccc5c(c4)OCCO5)cnc3c12 [28BZ] | < 50 nM |  | 
CN(C)c1c(Cl)ncc2sc3c(=O)n(-c4ccc(Cl)cc4)cnc3c12 [compound 54] |  | 150 to 1000 nM | 
C=CCN(C)c1ccnc2sc3c(=O)n(-c4ccc(C)cc4)cnc3c12 [28AC] |  | < 50 nM | 
CNc1c(C#N)cnc2sc3c(=O)n(-c4ccc(OC)cc4)cnc3c12 [28FQ] | 50 to 150 nM |  | 
CC(=O)Nc1ccc(-n2cnc3c(sc4nccc(N(C)C)c43)c2=O)cc1 [7AL] |  | > 1000 nM | 
O=c1c2sc3nccc(NC4CC4)c3c2ncn1-c1ccc(O)cc1 [28HS] | < 50 nM |  | 
C=CCOc1ccnc2sc3c(=O)n(-c4ccc(Br)cc4)cnc3c12 [66J] | < 50 nM |  | 
CNc1nc(N)c2c(n1)sc1c(=O)n(-c3ccc(C)cc3)cnc12 [71B] | > 1000 nM |  | 
O=c1c2sc3nccc(NCCCCO)c3c2ncn1-c1ccc(Cl)cc1 [28GE] | < 50 nM |  | IC50 [3]: 0.28 nM
Nc1ccnc2sc3c(=O)n(-c4ccc(Cl)cc4)cnc3c12 [28FK] | < 50 nM |  | 
Nc1ccnc2sc3c(=O)n(C4CCCCC4)cnc3c12 [72A] |  | < 50 nM | 

SMILES | IC50 [1] | IC50 [2] | other results
CN(C)c1ccnc2sc3c(=O)n(-c4ccc(C(N)=O)cc4)cnc3c12 [7AZ] |  | > 1000 nM | 
Cc1ccc(-n2cnc3c(sc4nccc(NCCCO)c43)c2=O)cc1 [28CX] | < 50 nM |  | 
CN(C)c1ccnc2sc3c(=O)n(-c4ccc5c(c4)oc(=O)n5C)cnc3c12 [7AR] |  | > 1000 nM | 
CCCCOc1ncnc2sc3c(=O)n(-c4ccc(OC)cc4)cnc3c12 [compound 191] | > 1000 nM |  | 
CCCN(C)c1ccnc2sc3c(=O)n(C4CCCCC4)cnc3c12 [28AN] |  | < 50 nM | 
O=c1c2sc3nccc(NC4CCCC4)c3c2ncn1C1CCCCC1 [28T] |  | > 1000 nM | 
CCc1ccnc2sc3c(=O)n(C4CCCCC4)cnc3c12 [29C] |  | 50 to 150 nM | 
COc1ccnc2sc3c(=O)n(-c4ccc(Cl)cc4)cnc3c12 [28FS] | < 50 nM |  | 
COc1ccc(-n2cnc3c(sc4nccc(NC5CCCCC5)c43)c2=O)cc1 [28E] |  | > 1000 nM | 
CN(C)c1ccnc2sc3c(=O)n(NC(=O)C4CC4)c(C4CC4)nc3c12 [65C] |  | > 1000 nM | 
CN(C)c1ccnc2sc3c(=O)n(-c4ccc5ncoc5c4)cnc3c12 [7BS] |  | < 50 nM | 
COc1ccc(-n2cnc3c(sc4nc(C)cc(C)c43)c2=O)cc1 [P-15] |  | 150 to 1000 nM | 
CCOC(=O)CSc1nc2c(sc3nc(C)cc(C)c32)c(=O)n1-c1ccc(Cl)cc1 [P-7] |  | 150 to 1000 nM | 
C=C(C)CNc1ccnc2sc3c(=O)n(-c4ccc(OC)cc4)cnc3c12 [28FB] | < 50 nM |  | 
O=c1c2sc3nccc(Cl)c3c2ncn1-c1ccc(Cl)cc1 [57E] | 150 to 1000 nM |  | 
COc1ccc(-n2cnc3c(sc4nccc(OC)c43)c2=O)c(F)c1 [25E] | > 1000 nM |  | 
COc1cc(N(C)C)c2c(n1)sc1c(=O)n(-c3ccc(C)cc3)cnc12 [compound 58] |  | < 50 nM | 
CN(C)c1ccnc2sc3c(=O)n(-c4ccccc4)cnc3c12 [7D] |  | < 50 nM | 
Cc1cc(-n2cnc3c(sc4nccc(N(C)C)c43)c2=O)ccc1I [7EA] |  | < 50 nM | 
CN(C)c1ccnc2sc3c(=O)n(N4CCCC4)cnc3c12 [60I] |  | 50 to 150 nM | 
CCc1ccc(-n2cnc3c(sc4nccc(NC5CC5)c43)c2=O)cc1 [28BT] | 50 to 150 nM |  | 
CN(C)c1ccnc2sc3c(=O)n(N4CCCCCC4)cnc3c12 [60D] |  | < 50 nM | 
O=c1c2sc3nccc(NC4CCCCC4)c3c2ncn1-c1ccc(OC(F)(F)F)cc1 [28F] |  | > 1000 nM | 

SMILES | IC50 [1] | IC50 [2] | other results
CN(C)c1ccnc2sc3c(=O)n(-c4ccc5nsnc5c4)cnc3c12 [7BN] |  | < 50 nM | 
CN(C)c1ccnc2sc3c(=O)n(-c4ccc(OS(C)(=O)=O)cc4)cnc3c12 [compound 204] | 50 to 150 nM |  | 
CCc1ccnc2sc3c(=O)n(-c4ccc(OC)cc4)cnc3c12 [29I] | < 50 nM |  | 
COCCNc1ccnc2sc3c(=O)n(-c4ccc(OC)cc4)cnc3c12 [28DC] | < 50 nM |  | 
CN(C)c1c([N+](=O)[O-])cnc2sc3c(=O)n(C4CCCCC4)cnc3c12 [compound 51] |  | < 50 nM | 
CN(C)c1ccnc2sc3c(=O)n(-c4ccc5c(c4)CCO5)cnc3c12 [7CG] |  | < 50 nM | 
CN(C)c1ccnc2sc3c(=O)n(CCN4CCCCC4)cnc3c12 [15O] |  | > 1000 nM | 
Cc1ccc(-n2cnc3c(sc4nccc(N(C)C)c43)c2=O)nc1 [7DE] |  | < 50 nM | 
CNc1c(Cl)cnc2sc3c(=O)n(-c4ccc(Cl)cc4)cnc3c12 [compound 200] | < 50 nM |  | 
O=c1c2sc3nccc(N4CCC[C@@H]4CO)c3c2ncn1-c1ccc(Cl)cc1 [28GI] | > 1000 nM |  | 
Cc1ccc(-n2cnc3c(sc4nccc(NN)c43)c2=O)cc1 [28DK] | 150 to 1000 nM |  | 
CN(C)c1ccnc2sc3c(=O)n(-c4ccc5c(c4)OCCO5)cnc3c12 [7AC] |  | < 50 nM | IC50 [3]: 1.84 nM
Cc1ccc(-n2cnc3c(sc4nccc(N(C)N)c43)c2=O)cc1 [28AE] |  | < 50 nM | 
COc1ccnc2sc3c(=O)n(-c4ccc(Cl)cc4F)cnc3c12 [28FT] | 150 to 1000 nM |  | 
O=c1c2sc3nccc(NC4CC4)c3c2ncn1C1CCCCC1 [28S] |  | < 50 nM | 
O=c1c2sc3ncccc3c2ncn1-c1ccccc1 [compound 11] |  | > 1000 nM | 
CN(C)c1ccnc2sc3c(=O)n(CCN4CCOCC4)cnc3c12 [15N] |  | > 1000 nM | 
COCCCNc1ccnc2sc3c(=O)n(-c4ccc(OC)cc4)cnc3c12 [28HL] | < 50 nM |  | 
O=c1c2sc3nccc(N4CCCC4)c3c2ncn1C1CCCCC1 [28A] |  | > 1000 nM | 
COC[C@H](C)Nc1ccnc2sc3c(=O)n(-c4ccc(Br)cc4)cnc3c12 [28GZ] | > 1000 nM |  | 
COc1ccc(-n2cnc3c(sc4nc(Cl)cc(OC)c43)c2=O)cc1 [57B] | > 1000 nM |  | 

More lines, main results first:

IC50 [1] | IC50 [2] | SMILES | other results
> 1000 nM |  | Cc1ccc(-n2cnc3c(sc4nccc(CN(C)C)c43)c2=O)cc1 [169A] | 
> 1000 nM |  | COCCn1cnc2c(sc3ncnc(NCC(F)(F)F)c32)c1=O [95DY] | 
150 to 1000 nM |  | COc1ccc(-n2cnc3c(sc4ncnc(Nc5ccccn5)c43)c2=O)cc1 [190K] | 
> 1000 nM |  | CCOC(=O)c1cc2c(nc1C(F)(F)F)sc1c(=O)n(-c3ccc(C)cc3)cnc12 [144C] | 
 | 150 to 1000 nM | CCCc1nc2c(sc3nccc(N(C)C)c32)c(=O)n1-c1ccc(OC)cc1 [116F] | 
50 to 150 nM |  | CCNc1ncnc2sc3c(=O)n(-c4ccc(OC)cc4F)cnc3c12 [95BE] | 
 | 150 to 1000 nM | Cc1ccc(-n2cnc3c(sc4ncc(N)cc43)c2=O)cc1 [147A] | 
 | < 50 nM | CCNc1ccnc2sc3c(=O)n(-c4ccc(S)c(NC=O)c4)cnc3c12 [131G] | 
150 to 1000 nM |  | C#CCNc1ncnc2sc3c(=O)n(-c4ccc(OC)c(F)c4)cnc3c12 [95EK] | 
50 to 150 nM |  | C#CCNc1ncnc2sc3c(=O)n(-c4ccc(OC)cc4F)cnc3c12 [95EJ] | 
 | 150 to 1000 nM | CCNc1ncnc2sc3c(=O)n(-c4ccc(OC(F)(F)F)cc4)cnc3c12 [95V] | 
150 to 1000 nM |  | CN(C)c1cccc2sc3c(=O)n(-c4cc(F)cc(F)c4)cnc3c12 [103Q] | 
< 50 nM |  | C=C(C)CNc1ncnc2sc3c(=O)n(-c4ccc(Br)cc4)cnc3c12 [95FA] | 
150 to 1000 nM |  | CN(C)c1cccc2sc3c(=O)n(-c4ccc(F)c(F)c4)cnc3c12 [103P] | 
< 50 nM |  | C=CCNc1ncnc2sc3c(=O)n(-c4ccc(Cl)cc4)cnc3c12 [95BP] | IC50 [3]: 1.31 nM
 | 150 to 1000 nM | CN(C)c1ccnc2c1c1ncn(-c3ccc(Cl)cc3)c(=O)c1n2C [134F] | 
> 1000 nM |  | COCCn1cnc2c(sc3ncnc(NC4CC4)c32)c1=O [95EC] | 
< 50 nM |  | CNc1c(C2CC2)cnc2sc3c(=O)n(-c4ccc(OC)cc4)cnc3c12 [137E] | 
 | 150 to 1000 nM | Cc1ccc(-n2c(C)nc3c(sc4nccc(NCC(F)(F)F)c43)c2=O)cc1 [113L] | 
 | < 50 nM | CCN(C)c1ncnc2sc3c(=O)n(-c4ccc(OC(F)(F)F)cc4)cnc3c12 [95R] | 
 | > 1000 nM | CN(C)c1ccnc2c1c1ncn(C3CCCCC3)c(=O)c1n2C [134G] | 
150 to 1000 nM |  | COc1ncnc2sc3c(=O)n(-c4ccc(C)cc4)cnc3c12 [95FN] | 
> 1000 nM |  | CN(C)c1cccc2sc3c(=O)n(-c4cc(Cl)cc(Cl)c4)cnc3c12 [103K] | 
> 1000 nM |  | Cc1ccc(-n2cnc3c(sc4cnnc(NCCCO)c43)c2=O)cc1 [167F] | 
> 1000 nM |  | O=c1c2sc3ncnc(Nc4ccccc4)c3c2ncn1-c1ccc2ncsc2c1 [95GD] | 
50 to 150 nM |  | C#CCNc1ncnc2sc3c(=O)n(-c4ccc5c(c4)OCCO5)cnc3c12 [95EN] | 
150 to 1000 nM |  | COc1ccc(Nc2ncnc3sc4c(=O)n(-c5ccccc5)cnc4c23)cc1 [95GI] | 
